According to PMC8067737, “Synthesis and Biological Evaluation of Coumarin-Linked 4-Anilinomethyl-1,2,3-Triazoles as Potent Inhibitors of Carbonic Anhydrases IX and XIII Involved in Tumorigenesis” (Metabolites, 2021):
Read-outs that look alike come from different tables or passages of the source.

Key:
hCA I = hCA I (Homo sapiens, UniProt P00915); test: CA catalyzed CO2 hydration, stopped flow assay, hCA I
From the text: (§1) An SX.18V-R Applied Photophysics (Oxford, UK) stopped flow instrument has been used to assay the CA catalyzed CO2 hydration activity [26]. […] The inhibition constants were obtained by non-linear least squares methods using the Cheng-Prusoff equation, as reported earlier, and represent the mean from at least three different determinations.

hCA II = hCA II (Homo sapiens, UniProt P00918); test: CA catalyzed CO2 hydration, stopped flow assay, hCA II
From the text: as §1

hCA IX = hCA IX (Homo sapiens, UniProt Q16790); test: CA catalyzed CO2 hydration, stopped flow assay, hCA IX; settings: recombinant enzyme, stopped flow technique, mean from 3 different assays, errors ±5–10%
From the text: as §1

hCA XIII = hCA XIII (Homo sapiens, UniProt Q8N1Q1); test: CA catalyzed CO2 hydration, stopped flow assay, hCA XIII; settings: Ki (nM) hCA XIII, recombinant enzyme; stopped flow technique; mean from 3 different assays, errors ±5–10%
Sequence of hCA XIII (Q8N1Q1 whole entry): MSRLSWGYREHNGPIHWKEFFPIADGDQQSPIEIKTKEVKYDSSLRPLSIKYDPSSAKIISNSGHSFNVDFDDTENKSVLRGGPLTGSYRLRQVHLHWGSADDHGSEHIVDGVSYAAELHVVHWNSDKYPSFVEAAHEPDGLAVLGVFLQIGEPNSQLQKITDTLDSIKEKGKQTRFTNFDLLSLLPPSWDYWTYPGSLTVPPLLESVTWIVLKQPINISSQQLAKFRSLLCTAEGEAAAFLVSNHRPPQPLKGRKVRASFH
From the text: as §1

Sequence of hCA I (P00915 whole entry): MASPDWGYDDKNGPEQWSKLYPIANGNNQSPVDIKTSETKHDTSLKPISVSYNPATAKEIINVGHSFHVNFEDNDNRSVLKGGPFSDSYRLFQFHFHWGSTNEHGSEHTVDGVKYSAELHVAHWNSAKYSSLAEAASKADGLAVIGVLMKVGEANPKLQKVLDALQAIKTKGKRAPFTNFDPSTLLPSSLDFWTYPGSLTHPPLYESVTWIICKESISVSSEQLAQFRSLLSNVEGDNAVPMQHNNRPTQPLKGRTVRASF

| Compound | melting point [°C] | Ki (hCA I) [nM] | Ki (hCA II) [nM] | Ki (hCA IX; Ki (nM) hCA IX) [nM] | Ki (hCA XIII) [nM] | Ki (hCA IX; read-out: Ki (nM) hCA IX) [nM] |
| --- | --- | --- | --- | --- | --- | --- |
| O=c1ccc2cc(-n3cc(CNc4ccccc4F)nn3)ccc2o1 [Compound 6t, 6-(4-(((2-fluorophenyl)amino)methyl)-1H-1,2,3-triazol-1-yl)-2H-chromen-2-one] | 230 to 232 | > 50000 | > 50000 | 643 | 6030 |  |
| CC(C)c1ccc(NCc2cn(-c3ccc4oc(=O)ccc4c3)nn2)cc1 [Compound 6f, 6-(4-(((4-isopropylphenyl)amino)methyl)-1H-1,2,3-triazol-1-yl)-2H-chromen-2-one] | 152 to 155 | > 50000 | > 50000 | 45 | 8150 |  |
| O=c1ccc2cc(-n3cc(CNc4ccc(Br)cc4)nn3)ccc2o1 [Compound 6e, 6-(4-(((4-bromophenyl)amino)methyl)-1H-1,2,3-triazol-1-yl)-2H-chromen-2-one] |  | > 50000 | > 50000 | < 50 | 883 | 36.3 |
| O=c1ccc2cc(-n3cc(CNc4cccc([N+](=O)[O-])c4)nn3)ccc2o1 [Compound 6i, 6-(4-(((3-nitrophenyl)amino)methyl)-1H-1,2,3-triazol-1-yl)-2H-chromen-2-one] | 230 to 234 | > 50000 | > 50000 | 85.7 | 896 |  |
| O=c1ccc2cc(-n3cc(CNc4ccc(Cl)cc4[N+](=O)[O-])nn3)ccc2o1 [Compound 6q, 6-(4-(((4-chloro-2-nitrophenyl)amino)methyl)-1H-1,2,3-triazol-1-yl)-2H-chromen-2-one] | 213 to 215 | > 50000 | > 50000 | 96.4 | 96.7 |  |
| O=c1ccc2cc(-n3cc(CNc4cc(F)cc(F)c4)nn3)ccc2o1 [Compound 6s, 6-(4-(((3,5-difluorophenyl)amino)methyl)-1H-1,2,3-triazol-1-yl)-2H-chromen-2-one] | 204 to 206 | > 50000 | > 50000 | 90.9 | 664 |  |
| Cc1cccc(NCc2cn(-c3ccc4oc(=O)ccc4c3)nn2)c1C [Compound 6r, 6-(4-(((2,3-dimethylphenyl)amino)methyl)-1H-1,2,3-triazol-1-yl)-2H-chromen-2-one] | 220 to 222 | > 50000 | > 50000 | 462 | 550 |  |
| COc1ccc(NCc2cn(-c3ccc4oc(=O)ccc4c3)nn2)cc1 [Compound 6c, 6-(4-(((4-methoxyphenyl)amino)methyl)-1H-1,2,3-triazol-1-yl)-2H-chromen-2-one] | 140 to 142 | > 50000 | > 50000 | 73.3 | 950 |  |
| O=c1ccc2cc(-n3cc(CNc4ccccc4I)nn3)ccc2o1 [Compound 6p, 6-(4-(((2-iodophenyl)amino)methyl)-1H-1,2,3-triazol-1-yl)-2H-chromen-2-one] | 165 to 167 | > 50000 | > 50000 | 574 | 594 |  |
| O=c1ccc2cc(-n3cc(CNc4ccc(F)cc4)nn3)ccc2o1 [Compound 6l, 6-(4-(((4-fluorophenyl)amino)methyl)-1H-1,2,3-triazol-1-yl)-2H-chromen-2-one] | 210 to 212 | > 50000 | > 50000 | 86.1 | 840 |  |
| O=c1ccc2cc(-n3cc(CNc4cccc(C(F)(F)F)c4)nn3)ccc2o1 [Compound 6k] | 246 to 248 | > 50000 | > 50000 | 69.1 | 6430 |  |
| Cc1cc(C)cc(NCc2cn(-c3ccc4oc(=O)ccc4c3)nn2)c1 [Compound 6n, 6-(4-(((3,5-dimethylphenyl)amino)methyl)-1H-1,2,3-triazol-1-yl)-2H-chromen-2-one] | 191 to 194 | > 50000 | > 50000 | 89.3 | 703 |  |
| O=c1ccc2cc(-n3cc(CNc4ccccc4)nn3)ccc2o1 [Compound 6b, 6-(4-((phenylamino)methyl)-1H-1,2,3-triazol-1-yl)-2H-chromen-2-one] | 159 to 161 | > 50000 | > 50000 | 60.8 | 90.1 |  |
| O=c1ccc2cc(-n3cc(CNc4cccc(Br)c4)nn3)ccc2o1 [Compound 6j, 6-(4-(((3-bromophenyl)amino)methyl)-1H-1,2,3-triazol-1-yl)-2H-chromen-2-one] | 133 to 136 | > 50000 | > 50000 | 305 | 91.8 |  |
| O=c1ccc2cc(-n3cc(CNc4cccc(Cl)c4)nn3)ccc2o1 [Compound 6o, 6-(4-(((3-chlorophenyl)amino)methyl)-1H-1,2,3-triazol-1-yl)-2H-chromen-2-one] | 134 to 137 | > 50000 | > 50000 | 92.7 | 95.4 |  |
| Cc1ccc(NCc2cn(-c3ccc4oc(=O)ccc4c3)nn2)cc1 [Compound 6a, 6-(4-((p-tolylamino)methyl)-1H-1,2,3-triazol-1-yl)-2H-chromen-2-one] | 150 to 152 | > 50000 | > 50000 | 48.4 | 92.6 |  |
| O=c1ccc2cc(-n3cc(CNc4ccc(Oc5ccccc5)cc4)nn3)ccc2o1 [Compound 6h, 6-(4-(((4-phenoxyphenyl)amino)methyl)-1H-1,2,3-triazol-1-yl)-2H-chromen-2-one] | 172 to 174 | > 50000 | > 50000 | 73 | 905 |  |
| Cc1cccc(NCc2cn(-c3ccc4oc(=O)ccc4c3)nn2)c1 [Compound 6m, 6-(4-((m-tolylamino)methyl)-1H-1,2,3-triazol-1-yl)-2H-chromen-2-one] | 220 to 223 | > 50000 | > 50000 | 80.1 | 795 |  |
| O=c1ccc2cc(-n3cc(CNc4ccc(Cl)cc4)nn3)ccc2o1 [Compound 6d, 6-(4-(((4-chlorophenyl)amino)methyl)-1H-1,2,3-triazol-1-yl)-2H-chromen-2-one] | 136 to 138 | > 50000 | > 50000 | 152 | 898 |  |
| Cc1cc(C)c(NCc2cn(-c3ccc4oc(=O)ccc4c3)nn2)c(C)c1 [Compound 6g, 6-(4-((mesitylamino)methyl)-1H-1,2,3-triazol-1-yl)-2H-chromen-2-one] | 157 to 159 | > 50000 | > 50000 | 64.8 | 903 |  |
